Source: patent publication US4423210A, “Intermediates for the preparation of 3-demethoxyfortimicins” (Abbott Laboratories, priority 1982, dated 1983)
Where a name gives a salt, the structure may show the parent alone. Read-outs that look alike come from different tables or passages of the source.

Tests used:
[1] = tested on: Pseudo. aeruginosa KY 8512; experiment: in vitro antibiotic activity, two-fold agar dilution (MIC); type: cell-based; settings: Pseudomonas aeruginosa
Protocol: (§1) The in vitro activity of 3-demethoxyfortimicin A of Example 10 is determined by a two-fold dilution test using 10 ml. of Mueller-Hinton agar per Petri plate. The agar plates are innoculated with approximately 1×10^5 of the test organisms indicated in Table II, delivered to the agar surface by a Steers replicator. The innoculated plates are incubated for 24 hours at 35° C. in the presence of varying concentrations of 3-demethoxyfortimicin A tetrahydrochloride of Example 10 or fortimicin A sulfate as a comparative antibiotic.

[2] = tested on: Enterobacter aerogenes 13048; experiment: as above; type: cell-based
Protocol: as §1

Kleb. pneumoniae KY 4262 = experiment: as above; type: cell-based; settings: Klebsiella pneumoniae
Protocol: as §1

E. coli JUHL = experiment: as above; type: cell-based; settings: Escherichia coli
Protocol: as §1

[3] = tested on: Proteus mirabilis Fin. #9; experiment: as above; type: cell-based
Protocol: as §1

[4] = tested on: Pseudo. aeruginosa BMH #10; experiment: as above; type: cell-based; settings: Pseudomonas aeruginosa
Protocol: as §1

Staph. aureus Smith = experiment: as above; type: cell-based; settings: Staphylococcus aureus
Protocol: as §1

Strep. faecalis 10541 = experiment: as above; type: cell-based
Protocol: as §1

Proteus vulgaris JJ = experiment: as above; type: cell-based
Protocol: as §1

Serratia marcescens 4003 = experiment: as above; type: cell-based
Protocol: as §1

Proteus rettgeri U6333 = experiment: as above; type: cell-based; settings: Providencia rettgeri
Protocol: as §1

Providencia 1577 = experiment: as above; type: cell-based
Protocol: as §1

Shigella sonnei 9290 = experiment: as above; type: cell-based; settings: Mueller-Hinton agar, 24 hours, 35° C.
Protocol: as §1

[5] = tested on: Pseudo. aeruginosa KY 8516; experiment: as above; type: cell-based; settings: Pseudomonas aeruginosa
Protocol: as §1

E. coli BL 3676 (Res) = experiment: as above; type: cell-based; settings: Escherichia coli
Protocol: as §1

E. coli 76-2 = experiment: as above; type: cell-based, Escherichia coli
Protocol: as §1

Pseudo aeruginosa 27853 = experiment: as above; type: cell-based, Pseudomonas aeruginosa
Protocol: as §1

Pseudo. aeruginosa 209 = experiment: as above; type: cell-based, Pseudomonas aeruginosa
Protocol: as §1

Sal. typhimurium Ed. #9 = experiment: as above; type: cell-based, Salmonella typhimurium; settings: Salmonella enterica
Protocol: as §1

Kleb. pneumoniae 10031 = experiment: as above; type: cell-based, Klebsiella pneumoniae
Protocol: as §1

[6] = tested on: strains tested (Table II); experiment: overall antibiotic activity relative to fortimicin A sulfate; type: cell-based
Protocol: as §1

COC1C(O)C(N)C(OC2OC(C(C)N)CCC2N)C(O)C1N(C)C(=O)CN (stereo not drawn) [Fortimicin A Sulfate, fortimicin A sulfate, reference compound]
MIC ([1]; KY8512, 24 h): 6.2 µg/mL
MIC ([2]; Klebsiella aerogenes, 13048, 24 h): 3.1 µg/mL
MIC (Kleb. pneumoniae KY 4262; KY4262, 24 h): 6.2 µg/mL
MIC (E. coli JUHL; 24 h): 3.1 µg/mL
MIC ([3]; Proteus mirabilis, 24 h): 3.1 µg/mL
MIC ([4]; 24 h): 0.78 µg/mL
MIC (Staph. aureus Smith; 24 h): 0.78 µg/mL
MIC (Strep. faecalis 10541; Enterococcus faecalis, 10541, 24 h): 50 µg/mL
MIC (Proteus vulgaris JJ; Proteus vulgaris, 24 h): 3.1 µg/mL
MIC (Serratia marcescens 4003; Serratia marcescens, 4003, 24 h): 3.1 µg/mL
MIC (Proteus rettgeri U6333; U6333, 24 h): 12.5 µg/mL
MIC (Providencia 1577; Providencia, 1577, 24 h): 1.56 µg/mL
MIC (Shigella sonnei 9290): 6.2 µg/mL
MIC ([5]; KY8516, 24 h): 6.2 µg/mL
MIC (E. coli BL 3676 (Res); 24 h): 25 µg/mL
MIC (E. coli 76-2; Escherichia coli, 762, 24 h): 3.1 µg/mL
MIC (Pseudo aeruginosa 27853; Pseudomonas aeruginosa, 27853, 24 h): 12.5 µg/mL
MIC (Pseudo. aeruginosa 209; Pseudomonas aeruginosa, 209, 24 h): 100 µg/mL
MIC (Sal. typhimurium Ed. #9; TYPHIMURIUM, 24 h): 3.1 µg/mL
MIC (Kleb. pneumoniae 10031; Klebsiella pneumoniae, 10031, 24 h): 1.56 µg/mL

CC(N)C1CCC(N)C(OC2C(N)C(O)CC(N(C)C(=O)CN)C2O)O1 (stereo not drawn) [3-Demethoxyfortimicin A tetrahydrochloride]
activity relative to that of fortimicin A sulfate ([6]; against many of the susceptible strains tested): ~200%
overall activity relative to that of fortimicin A sulfate ([6]; overall, all strains of Table II): approximately 137%
MIC ([1]; KY8512, Pseudo. aeruginosa KY 8512, Mueller-Hinton agar, 24 hours, 35° C., read-out: MIC): 3.1 µg/mL
MIC ([2]; Klebsiella aerogenes, Enterobacter aerogenes 13048, Mueller-Hinton agar, 24 hours, 35° C., read-out: MIC): 3.1 µg/mL
MIC (Kleb. pneumoniae KY 4262; KY4262, Kleb. pneumoniae KY 4262, Mueller-Hinton agar, 24 hours, 35° C., read-out: MIC): 3.1 µg/mL
MIC (E. coli JUHL; E. coli JUHL, Mueller-Hinton agar, 24 hours, 35° C., read-out: MIC): 3.1 µg/mL
MIC ([3]; Proteus mirabilis Fin. #9, Mueller-Hinton agar, 24 hours, 35° C., read-out: MIC): 3.1 µg/mL
MIC ([4]; Pseudo. aeruginosa BMH #10, Mueller-Hinton agar, 24 hours, 35° C., read-out: MIC): 0.78 µg/mL
MIC (Staph. aureus Smith; Staph. aureus Smith, Mueller-Hinton agar, 24 hours, 35° C., read-out: MIC): 0.78 µg/mL
MIC (Strep. faecalis 10541; Enterococcus faecalis, Strep. faecalis 10541, Mueller-Hinton agar, 24 hours, 35° C., read-out: MIC): 25 µg/mL
MIC (Proteus vulgaris JJ; Proteus vulgaris JJ, Mueller-Hinton agar, 24 hours, 35° C., read-out: MIC): 3.1 µg/mL
MIC (Serratia marcescens 4003; Serratia marcescens 4003, Mueller-Hinton agar, 24 hours, 35° C., read-out: MIC): 1.56 µg/mL
MIC (Proteus rettgeri U6333; Proteus rettgeri U6333, Mueller-Hinton agar, 24 hours, 35° C., read-out: MIC): 6.2 µg/mL
MIC (Providencia 1577; Providencia 1577, Mueller-Hinton agar, 24 hours, 35° C., read-out: MIC): 1.56 µg/mL
MIC (Shigella sonnei 9290): 3.1 µg/mL
MIC ([5]; KY8516, Pseudo. aeruginosa KY 8516, Mueller-Hinton agar, 24 hours, 35° C., read-out: MIC): 3.1 µg/mL
MIC (E. coli BL 3676 (Res); E. coli BL 3676 (Res), Mueller-Hinton agar, 24 hours, 35° C., read-out: MIC): 25 µg/mL
MIC (E. coli 76-2; Escherichia coli, 762, E. coli 76-2, Mueller-Hinton agar, 24 hours, 35° C., read-out: MIC): 1.56 µg/mL
MIC (Pseudo aeruginosa 27853; Pseudomonas aeruginosa, Pseudo aeruginosa 27853, Mueller-Hinton agar, 24 hours, 35° C., read-out: MIC): 6.2 µg/mL
MIC (Pseudo. aeruginosa 209; Pseudomonas aeruginosa, Pseudo. aeruginosa 209, Mueller-Hinton agar, 24 hours, 35° C., read-out: MIC): 100 µg/mL
MIC (Sal. typhimurium Ed. #9; Sal. typhimurium Ed. #9, Mueller-Hinton agar, 24 hours, 35° C., read-out: MIC): 3.1 µg/mL
MIC (Kleb. pneumoniae 10031; Klebsiella pneumoniae, Kleb. pneumoniae 10031, Mueller-Hinton agar, 24 hours, 35° C., read-out: MIC): 1.56 µg/mL
